Earlier results, collected in patent US20130337047A1, “COMPOSITIONS FOR TREATING ORAL AND PERIODONTAL INFECTIONS” (ZarzaTech, Inc., priority 2012, published 2013).
Counter-ions that a name gives are not always drawn.

Columns and labels:
[1] = test system: gingivitis
[2] = test system: crevicular neutrophils; conditions: humans, topical 0.5% oral rinse

Row | Compound | Anti-gingivitis activity ([1]; dose response study, dog gingivitis model) | Prevention of gingivitis ([1]; prevention study, same dog model) | Antiplaque activity and tooth stain ([1]; dog gingivitis model) | Gingival inflammation and gingival bleeding ([1]; dog gingivitis model) | Gingivitis ([1]; dog gingivitis model) | Antibacterial function of crevicular neutrophils [2] | Clinical gingivitis benefit [2]
1 | CN/C(=N/CCSCc1nc[nH]c1C)NC#N [cimetidine HCL] | significant anti-gingivitis activity that increased with increasing dose | not conclusive | – | – | – | – | –
2 | CN/C(=N/CCSCc1nc[nH]c1C)NC#N [cimetidine] | – | – | no antiplaque activity or increase in tooth stain | significantly reduced | reduced gingivitis | enhanced | no clinical gingivitis benefit
